This assay concerns Influenza virus A—A/Achi/1/68 (H3N2). The assay is classed as in vivo, outbred CFW female mice.
Setting [1] is: 10.0 mg/kg per os for 5 days, […].

Where two headings read alike, the source gives them in different places. Marks after values point to notes of the source that are not given here.

For the compound `N[C@H](CCC(=O)N[C@@H](Cc1c[nH]c2ccccc12)C(=O)O)C(=O)O` [SCV-07, γ-D-glutamyl-L-tryptophan], the “# of mice survived” value is, setting by setting: (0.1 mg/kg per os for 5 days, […]) 0; (1.0 mg/kg per os for 5 days, […]) 0; under setting [1], 0. Further, the “Median survival (days)” value (1.0 mg/kg per os for 5 days, […], p = 0.025 compared to PBS-treated group by Log Rank test) is on record as 9.0* days. Also, the “Median survival” value reads like this: under setting [1], 6.0 days; (mouse, in vivo) 7.0 days.

The values are drawn from US20070087974A1, “TREATMENT OR PREVENTION OF RESPIRATORY VIRAL INFECTIONS WITH IMMUNOMODULATOR COMPOUNDS” (SCICLONE PHARMACEUTICALS, INC., priority 2004, published 2007).
